Measurements published in patent EP4703354A1, “COMPOUND AS CCR6 ANTAGONIST, AND PHARMACEUTICAL COMPOSITION AND USE THEREOF” (Wuhan Createrna Science and Technology Co.,Ltd., priority 2023, dated 2024).

Experiments:
[1] = in vitro liver microsome metabolic stability, beagle dog; format: in vitro ADME; conditions: Beagle dog liver microsomes, 37°C
Procedure: (§1) Preparation of working solutions for test compounds and standards: An appropriate amount of the compound was accurately weighed and dissolved in a corresponding volume of suitable solvent to prepare 1 mM stock solutions of the test compounds and standards. The stock solutions were then diluted with appropriate solvent to obtain 100 µM working solutions of the test compounds, ensuring that the DMSO content in the working solutions remained below 10%.
(§2) The internal standard compound testosterone (or tolbutamide) and its corresponding solvent, internal standard concentration (200 ng/mL), were selected based on the properties of the test compound.
(§3) • Solution A: 0.1 mol/L K2HPO4 (2.28 g K2HPO4·3H2O was dissolved in 100 mL of double-distilled water); • Solution B: 0.1 mol/L KH2PO4 (1.36 g KH2PO4 was dissolved in 100 mL of double-distilled water); • 80.2 mL of Solution A and 19.8 mL of Solution B were mixed thoroughly, and the pH was adjusted to 7.4.
(§4) 37.5 mg of glycine was weighed, dissolved in 100 mL of ultrapure water, and adjusted to pH 8.0 with NaOH.
(§5) 1.25 mg of glucose-6-phosphate dehydrogenase (400 U/mg) was weighed (the specific amount weighed was calculated based on the activity of the purchased glucose-6-phosphate dehydrogenase), dissolved in 1 mL of glycine buffer to a concentration of 500 U/mL, aliquoted into 20 µL per tube, and stored at -20°C for future use.
(§6) 7.83 mg of NADP, 0.06 mL of D-glucose-6-phosphate (260 mg/mL), and 10.17 mg of MgCl2·6H2O were precisely weighed.
(§7) The mixture was dissolved in 1 mL of pure water. The cofactor ratio composition: NADP 10 mM, D-glucose-6-phosphate 60 mM, MgCl2·6H2O 50 mM.
(§8) The reaction system (taking a 500 µL system as an example) was composed of the following solution ratios: 416.5 µL phosphate buffer, 5 µL compound working solution, 25 µL liver microsomes, 3.5 µL glucose-6-phosphate dehydrogenase, and 50 µL cofactor solution. The total incubation volume could be adjusted according to experimental requirements.
(§9) 416.5 µL of phosphate buffer was taken, 25 µL of liver microsomes, 3.5 µL of glucose-6-phosphate dehydrogenase, and 50 µL of cofactor solution were added, vortexed twice to mix, and preincubated in a 37°C water bath for 5 minutes. Then, 5 µL of the test compound working solution was added, vortexed twice to mix, each time for 2-3 seconds, and placed in a 37°C water bath to initiate the reaction, with two parallel samples set. At 0.5 min, 1 min, 2 min, 5 min, 15 min, and 30 min after the reaction, 50 µL of the mixture was taken and added to centrifuge tubes containing 200 µL of 0°C pre-cooled internal standard working solution to terminate the reaction, vortexed for 1 minute to mix, and centrifuged at 13,000 rpm for 10 minutes in a 4°C pre-cooled high-speed centrifuge. The supernatant was collected for analysis. After the compound was added and vortex-mixed, 50 µL of the mixture was rapidly transferred to a centrifuge tube containing 200 µL of a pre-cooled (0°C) internal standard working solution to terminate the reaction, vortex-mixed for 1 minute, and used as the relative zero-point sample (relative to the standard group). The sample was then placed into a 37°C water bath to initiate the reaction, and timing was started.
(§10) The sample analysis of the test compound was performed using the liquid chromatography-tandem mass spectrometry (LCMS/MS) method. The semi-quantitative determination was performed using the ratio of the analyte peak area to the internal standard peak area. The retention times of the analyte and internal standard, chromatogram acquisition, and chromatogram integration were processed using Analyst software.
(§11) The in vitro elimination rate constant k of the test compound and the control compound was determined by converting the ratio of the peak area of the test compound to the internal standard into the remaining rate, and T1/2 was then calculated according to the following formula. T1/2 = (Ln2)/(k) = (0.693)/(k) [formula] Table 3. […]

[2] = in vitro liver microsome metabolic stability, human; format: in vitro ADME; conditions: Human liver microsomes, 37°C
Procedure: as §1, §2, §3, §4, §5, §6, §7, §8, §9, §10, §11

[3] = in vitro liver microsome metabolic stability, rat; format: in vitro ADME; conditions: Rat liver microsomes, 37°C
Procedure: as §1, §2, §3, §4, §5, §6, §7, §8, §9, §10, §11

[4] = in vivo pharmacokinetic study in SD rats; conditions: male, rat, plasma; for bioavailability: 1 mg/kg PO vs 1 mg/kg IV, read-out: Oral bioavailability F (%); for AUC(0-t) / Cmax / half-life: 1 mg/kg
Procedure: 2.2.1 Rats: SD rats, SPF grade, 6 rats per compound, male, body weight range 180-200 g.
2.2.2 Housing conditions: The animals were housed in an SPF-grade animal facility with free access to food and water, three per cage, under a 12/12-hour light/dark cycle (7:00 am/7:00 pm), at a temperature of 23 ± 3°C.
2.2.3 Drug preparation: The compound was precisely weighed, mixed with the required volume of 1% Tween 80, vortexed for 2 min, and then sonicated for 5 min until no visible particles remained. The mixture was subsequently stirred on a magnetic stirrer for 20 min, and the middle layer of the drug solution was collected for administration. For the IV group, the compound was accurately weighed, dissolved in the required volume of 50% PEG400, sonicated for 10 min, and vortexed until clear before administration.
The rats were randomly divided into 2 groups based on body weight, with 3 rats per compound per group. Group 1 was administered a single oral gavage dose (fasted), and Group 2 was administered a single tail vein bolus injection. Blood collection time points: for the po group, blood was collected at 0.167 h, 0.5 h, 1 h, 2 h, 3 h, 4 h, 6 h, and 8 h; for the iv group, blood was collected at 0.033 h, 0.167 h, 0.5 h, 1 h, 2 h, 4 h, 6 h, and 8 h.
After administration to the rats, blood was collected from the orbital venous plexus according to the sampling time points. Approximately 0.2-0.3 mL of blood was collected at each time point into anticoagulant EP tubes (containing 4 µL of EDTA-K2, 375 mg/mL, dried at 50°C). The tubes were slowly inverted up and down three times and stored in an ice box (for no more than 30 minutes). Centrifugation was performed at 4°C at 3000 × g for 10 minutes, and the supernatant was transferred to labeled EP tubes for bioanalytical testing. If testing could not be performed on the same day, the samples were stored at -80°C until analysis (care was taken to avoid multiple freeze/thaw cycles).
The data were analyzed using WinNonlin via a non-compartmental model to obtain PK parameters (Cmax, AUC0-last, AUCinf, T1/2, etc., selected based on different routes of administration). For specific data, please refer to Table 2. Table 2. PK experimental results of compounds in SD rats

[5] = target: T1, human CCR6 (Homo sapiens, UniProt P51684); experiment: human CCR6 calcium flux activity (FLIPR, HEK293 cells stably expressing human CCR6, CCL20 stimulation); format: cell-based; conditions: HEK293 cells stably expressing human CCR6, EC80 human MIP-3 alpha/CCL20; read-out: CCR6 inhibitory activity, IC50
T1 construct: expressed in transfected cells; host or cells: HEK293
T1 sequence (P51684 1-374): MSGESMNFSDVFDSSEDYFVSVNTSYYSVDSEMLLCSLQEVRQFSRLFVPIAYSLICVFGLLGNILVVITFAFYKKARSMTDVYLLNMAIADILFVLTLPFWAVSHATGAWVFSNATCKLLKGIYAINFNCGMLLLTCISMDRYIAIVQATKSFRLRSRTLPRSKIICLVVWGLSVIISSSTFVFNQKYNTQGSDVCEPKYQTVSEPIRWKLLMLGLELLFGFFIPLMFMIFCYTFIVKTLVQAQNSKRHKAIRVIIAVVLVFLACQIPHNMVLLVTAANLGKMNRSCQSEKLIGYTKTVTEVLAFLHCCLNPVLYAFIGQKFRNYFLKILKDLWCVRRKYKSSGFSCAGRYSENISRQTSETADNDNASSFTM
Procedure: The activity of the compounds was evaluated using HEK293 cells stably expressing human CCR6 via the FLIPR platform. A 384-well black cell culture plate (Greiner, 781946) was used, with a seeding density of 20,000 cells/well, and incubated overnight at 37°C in a 5% CO2 incubator. The culture medium in the cell plate wells was removed, and 20 µL of Fluo-4 Direct™ Calcium Assay Buffer (Invitrogen, F10471, Component C), 20 µL of 2× Fluo-4 Direct™ Calcium Assay Reagent (Invitrogen, F10471, Component A) working solution, and 10 µL of 6× test compound working solution were sequentially added to each well. The cell plate was incubated in a 37 °C, 5% CO2 incubator for 50 min, followed by a 10 min incubation at room temperature. Additionally, a 6×EC80 human MIP-3 alpha/CCL20 (MCE, HY-P7262) working solution was prepared. After the incubation was completed, 10 µL/well of the 6×EC80 human MIP-3 alpha/CCL20 working solution was transferred to the cell plate using a FLIPR instrument, and the fluorescence signal changes at an excitation wavelength of 494 nm and an emission wavelength of 516 nm were recorded over 90 seconds. The difference between the maximum fluorescence signal (RFUMax) and the minimum fluorescence signal (RFUMin) was used as the output signal. The compound inhibition rate and the log value of the compound concentration were calculated, and a four-parameter fitting analysis was performed using GraphPad Prism 8 software to obtain the IC50 value of the test compound.

| SMILES | Liver microsome T1-2 (min) Beagle dog [1] [min] | Liver microsome T1-2 (min) Human [2] [min] | Liver microsome T1-2 (min) Rat [3] [min] | bioavailability [4] [%] | AUC(0-t) ([4]; IV) [ng·h/mL] | Cmax ([4]; IV) [ng/mL] | half-life ([4]; IV) [h] | AUC(0-t) ([4]; PO) [ng·h/mL] | Cmax ([4]; PO) [ng/mL] | half-life ([4]; PO) [h] | IC50 [5] [nM] |
| --- | --- | --- | --- | --- | --- | --- | --- | --- | --- | --- | --- |
| CN(CC(F)F)C(=O)c1nccc(Nc2c(N[C@@H](c3ccc(F)cn3)C3(C)CCCC3)c(=O)c2=O)c1O [compound 071, (R)-N-(2,2-difluoroethyl)-4-((2-(((5-fluoropyridin-2-yl)(1-methylcyclopentyl)methyl)amino)-3,4-dioxocyclobut-1-en-1-yl)amino)-3-hydroxy-N-methylpicolinamide] | 54.52 | 262.47 | 52.81 |  |  |  |  |  |  |  |  |
| Cc1cccnc1[C@H](Nc1c(Nc2ccnc(C(=O)N(C)C)c2O)c(=O)c1=O)[C@@]1(C)CC(F)(F)CO1 (single isomer, unassigned) [128A] | 160.31 | 310.89 | 78.14 |  |  |  |  |  |  |  |  |
| Cc1nccnc1[C@H](Nc1c(Nc2ccc(F)c(C(=O)N(C)C)c2O)c(=O)c1=O)C1(C)CCCC1 [compound 130, (R)-6-fluoro-2-hydroxy-N,N-dimethyl-3-((2-(((1-methylcyclopentyl)(3-methylpyrazin-2-yl)methyl)amino)-3,4-dioxocyclobut-1-en-1-yl)amino)benzamide] | 2270.89 |  | 109.49 | 24 | 752 | 5530 | 0.22 | 181 | 158 | 2.79 |  |
| Cc1cccnc1C(Nc1c(Nc2ccc(Cl)c(C(=O)N(C)C)c2O)c(=O)c1=O)C1(C)CCOC1 (stereo not drawn) [compound 083, 6-chloro-2-hydroxy-N,N-dimethyl-3-((2-(((3-methylpyridin-2-yl)(3-methyltetrahydrofuran-3-yl)methyl)amino)-3,4-dioxocyclobut-1-en-1-yl)amino)benzamide] | 741.46 | 412.77 | 290.38 |  |  |  |  |  |  |  |  |
| Cc1nccnc1[C@H](Nc1c(Nc2ccc(F)c(C(=O)N(C)C(C)C)c2O)c(=O)c1=O)C1(C)CCCC1 [compound 090, (R)-6-fluoro-2-hydroxy-N-isopropyl-N-methyl-3-((2-(((1-methylcyclopentyl)(3-methylpyrazin-2-yl)methyl)amino)-3,4-dioxocyclobut-1-en-1-yl)amino)benzamide] | 355.30 | 209.60 | 50.16 |  |  |  |  |  |  |  |  |
| CC#CC(Nc1c(Nc2ccnc(C(=O)N(C)C)c2O)c(=O)c1=O)C1(C)CC(F)(F)CO1 (stereo not drawn) [compound 112, 4-((2-((1-(4,4-difluoro-2-methyltetrahydrofuran-2-yl)but-2-yn-1-yl)amino)-3,4-dioxocyclobut-1-en-1-yl)amino)-3-hydroxy-N,N-dimethylpicolinamide] |  |  | 560.45 |  |  |  |  |  |  |  | 165 |
| Cc1cccnc1[C@H](Nc1c(Nc2ccnc(C(=O)N(C)C)c2O)c(=O)c1=O)C1(C)CC(F)(F)C1 [compound 079, (R)-4-((2-(((3,3-difluoro-1-methylcyclobutyl)(3-methylpyridin-2-yl)methyl)amino)-3,4-dioxocyclobut-1-en-1-yl)amino)-3-hydroxy-N,N-dimethylpicolinamide] |  |  |  | 42.5 | 1180 | 3670 |  | 499 | 566 | 2.01 | 17.3 |
| Cc1cccnc1[C@H](Nc1c(Nc2ccnc(C(=O)N(C)C)c2O)c(=O)c1=O)C12CC(C1)C2 [compound 077, (R)-4-((2-((bicyclo[1.1.1]pentan-1-yl(3-methylpyridin-2-yl)methyl)amino)-3,4-dioxocyclobut-1-en-1-yl)amino)-3-hydroxy-N,N-dimethylpicolinamide] |  |  |  | 39.8 | 683 | 2280 |  | 272 | 158 |  | 17.6 |
